Experimental data reported in patent US20110287948A1, “MEASUREMENT OF MATERIAL PROPERTIES AND RELATED METHODS AND COMPOSITIONS BASED ON CYTOADHERENCE” (Massachusetts Institute of Technology, priority 2010, published 2011).
Entries after “also recorded” stand apart in the source; their conditions may differ.

Assays:
[1] = test system: P. falciparum-infected RBCs (iRBCs) and co-cultured uninfected RBCs (uRBCs); experiment: Microfluidic deformability cytometer: RBC mobility after artesunate drug treatment; type: cell-based, human; conditions: for separation resolution between iRBCs and uRBCs after drug treatment: after artesunate treatment vs untreated
Source text: The device used in this example comprises a series of equally spaced triangular pillar arrays with pore sizes ranging from 2.5 to 4 um (FIG. 55A illustrates the case of 3 um pore size). Compared to the diameter of an average RBC (˜7.5 um), the smaller pore sizes are designed to impose similar mechanical constraints on the cells as if they are passing through blood capillaries and splenic meshwork. Driven by constant pressure gradient in the sub-Pascal-per-micrometer range, RBCs are able to deform substantially at each constriction and traverse along the channel. The dynamic deformability of RBCs is then characterized by their mobility: the ability to deform repeatedly in order to pass through multiple constrictions in series.
FIG. 55A depicts an experimental schematic of the microfluidic system. A heating chamber (Olympus) was mounted to the inverted microscope stage. Four heaters for the inner water bath, microscope stage, chamber top, and lens were designed to accurately control the ambient temperature inside the chamber. The PDMS-glass bonded device consists of the inlet and outlet reservoirs and main channels with triangular pillar arrays. It was placed inside the heating chamber with only the inlet reservoir connecting to an external syringe via a 20 cm-tubing. The reservoirs were 500×500 μm^2 squares with 20 μm-interspacing cylindrical pillar arrays; these pillar arrays could pre-filter white blood cells from whole blood, allowing only RBCs to pass through the main channels. Each of the parallel channels was 10 pillars wide and 200 pillars long. Along the flow direction, the inter-pillar spacing was 10 μm. This spacing allows deformed cells to recover and ready for subsequent deformations. Perpendicular to the flow direction, the pore size varied from 2.5 to 4 μm for different channels. Cells experience different levels of deformation when passing through these pores.
FIG. 55B presents microscopic screenshots illustrating both iRBCs and co-cultured uRBCs moving in the microchannel at different temperature conditions. The uninfected cells appear as dark shadows indicated by blue arrows, and the infected cells with thiazole orange (TO) staining appear as bright dots indicated by white arrows. The mobility of individual cells can then be derived by recording the time period for each cell passing through 10 constrictions in series (i.e. equivalent to 200 μm distance travelled). In this example, cell mobility is used to characterize the dynamic deformability of individual RBCs.
The deformability of both iRBCs and uRBCs were measured at 2, 4 and 6 hours after artesunate drug treatment (FIG. 60). A synchronized culture of rings with ˜15% parasitemia was resuspended at 0.1% hematocrit in malaria culture medium containing 0.01, 0.05 or 0.1 μg/ml of artesunate.
Layout program CleWin3.0 was used to design the microfluidic device, which consists of a 500×500 μm^2 inlet reservoir, a 500×500 μm^2 outlet reservoir, and parallel capillary channels with triangular pillar arrays (FIG. 55A). Three different pore-size of 2.5, 3.0 and 4.0 μm were designed for the capillary channels to test optimum deformation condition for the experiment. A silicon mold of the device was made using standard silicon processing techniques. The photolithography step was done using a 5× reduction step-and-repeat projection stepper (Nikon NSR2005i9, Nikon Prevision) and reactive-ion etching (RIE) techniques were used to give the mold a final depth of 4.2 μm. Final device was then casted from the silicon mold using polydimethylsiloxane (PDMS) and was sealed by a glass slide using oxygen plasma.
P. falciparum 3D7A parasites (from Malaria Research and Reference Reagent Source, American Type Culture Collection) were cultured in leukocyte-free human RBCs (Research Blood Components, Brighton Mass.) in RPMI 1640 complete medium as described (Trager and Jensen J. parasitol. 2005). […]

RBCs = experiment: Deformability cytometer: velocity of glutaraldehyde-treated RBCs through constrictions; type: cell-based, human
Source text: The device design includes periodically spaced, triangle-shaped pillars and the gaps between these pillars result in well-controlled constrictions for RBCs to pass. The height of the device was set to 4.2 μm. RBCs were forced to assume a flat orientation before entering each constriction. This height, in addition to filters at the reservoirs, prevented white blood cells from entering the device, and permitted diluted whole blood to be used directly.
A mold of the device was made on a silicon wafer using photolithography and reactive-ion etching techniques. A 5× reduction step-and-repeat projection stepper (Nikon NSR2005i9, Nikon Precision) was used for patterning. The spacing between pillars was 3 μm, and the depth of the device was 4.2 μm. The device was made using standard PDMS casting protocols and bonded to a glass slide.
In experiments involving blood, 1 μl of whole blood (−50% hematocrit) was diluted in 100 μl of the PBS-pluronic-BSA solution for all of the experiments. In experiments involving parasites that express GFP, no further treatment was performed. In experiments involving healthy RBCs, 1 μl of whole blood (Research Blood Components, Brighton, Mass.), 1 μl of 50 μg/ml of Cell Tracker Orange (Invitrogen, Carlsbad, Calif.), and 98 μl of PBS were mixed with the indicated concentration of glutaraldehyde and allowed to sit for 30 minutes. The sample was then washed 3 times with the PBS-Pluronic-BSA solution. In experiments involving reticulocytes, 1 μl of whole blood, 89 μl of the PBS-Pluronic-BSA solution, and 10 μl of 1×10^−6M thiazole orange were mixed and allowed to sit for 20 minutes before starting experiments. Videos were obtained in which reticulocytes appear as uniformly fluorescent cells under the GFP filter set, while mature RBCs appear as shadows.
The PBS-Pluronic-BSA solution was pumped through the device for 30 minutes to coat the device walls with Pluronic and BSA. The RBC-PBS-Pluronic-BSA suspension was then injected into the device. Differences in pressure between the two reservoirs were generated hydrostatically by a difference in water column height. […]

With `C[C@H]1[C@H](OC(=O)CCC(=O)O)O[C@@H]2O[C@@]3(C)CC[C@H]4[C@H](C)CC[C@@H]1[C@@]24OO3` [artesunate] the “mobility decrease at earlier time points” value ([1]; 2 and 4 hours after artesunate treatment) was “smaller and less pronounced mobility decrease”, the mobility decrease ([1]; 6 hours after artesunate treatment, 0.01, 0.05 or 0.1 μg/ml, iRBCs and uRBCs) was 30%-50 and the “dose dependence of mobility changes” value ([1]; after 4 hour drug treatment, dosage range 0.01 to 0.1 μg/ml) was “no statistically significant dose dependence”. For the same compound, the “separation resolution between iRBCs and uRBCs after drug treatment” value [1] was “almost doubled”, the “separation resolution between iRBCs and uRBCs after drug treatment” value ([1]; listed as Artesunate) was “doubled” and the “effect on RBC deformability (stiffening)” value ([1]; iRBCs and uRBCs after artesunate treatment) was “stiffening effect on both iRBCs and uRBCs; also recorded: the drop in iRBC deformability is more precipitous than in uRBC”.

`O=CCCCC=O` [glutaraldehyde] was tested, and the “passage of RBCs into the channel” value (RBCs; glutaraldehyde concentrations greater than 0.003%) was “most RBCs were held up at the entrance to the channel, unable to deform”, the “RBCs that passed through the channels” value (RBCs; glutaraldehyde less than 0.002%, treatment for 30 minutes) was “more than 95%” and the “RBC stiffness / velocity with increasing concentration” value (RBCs; increasing glutaraldehyde concentration, 30 minutes, approx. 0.61 Pa/μm) was “progressively stiffer with decreasing velocity”.
